# Key:
# CYP1A2 = test: Activity of metabolic enzyme CYP1A2 (Luciferin 1A2 kit) in hepatocytes taken out from transplanted cDNA-uPA/SCID mice; format: cell-based, human
# Source text: After that, cDNA-uPA/SCID mice (2 to 4 M, Male; manufactured by PhoenixBio Co., Inc.) were subjected to laparotomy under isoflurane anesthesia, the spleen was exposed, 0.5×10^5 to 2×10^6 liver progenitor cells per mouse were implanted, and then the abdomen was sutured. On day 73 after implantation, the liver was removed and perfused. Hepatocytes were separated, and cultured for 4 days on 24-well collagen plates (manufactured by IWAKI) at 4×10^5 cells/well using 2% FBS-SHM medium.
# (§1) For the hepatocytes taken out from the mice, the activity of the metabolic enzyme CYP1A2 was measured using methanol (MeOH, at a concentration of 1%) and omeprazole (OMP, 50 μM). […] The activities of these metabolic enzymes were measured with Luciferin 1A2 kit and Luciferin-IPA kit from Promega, respectively.
# CYP3A4 = test system: CYP3A4
# Procedure: On day 73 after implantation, the liver was removed and perfused. Hepatocytes were separated, and cultured for 4 days on 24-well collagen plates (manufactured by IWAKI) at 4×10^5 cells/well using 2% FBS-SHM medium.
# as §1
SMILES,"CYP1A2 induction (CYP1A2; Example 14: cells from donor 10 M, omeprazole 50 μM vs methanol 1%)","CYP1A2 induction (CYP1A2; Example 15: cells from donor 8 M, as in Example 14)",CYP3A4 induction (CYP3A4)
COc1ccc2[nH]c([S+]([O-])Cc3ncc(C)c(OC)c3C)nc2c1 (stereo not drawn) [omeprazole],induced,induced,–
CCC1(c2ccccc2)C(=O)NC(=O)NC1=O [phenobarbital],–,–,induced

# From patent US20190302100A1, “METHOD FOR PREPARING LIVER PROGENITOR CELLS” (National Cancer Center, priority 2016, published 2019)
